Measured values published in patent US11357229B2, “Composition, uses and preparation process thereof, as well as method to ensure high corn crop yield” (priority 2011, dated 2022).

Assays:
Format in all cases: in vivo, Zea mays
[1] = test system: corn; experiment: Ethephon applied to corn at stage V8, Nova Mutum; methomyl and pyraclostrobin+epoxyconazole added in all treatments; details: for Increased Yield: 100,000 plants/ha vs control at normal density
Description: Example 1—Effect of Growth Regulator Ethephon Applied to Corn at the Stage of Development V8
(§1) In the moment of the application, the insecticide methomyl (215 g ha^−1 a.i.) and the fungicide pyraclostrobin+epoxyconazole (99.75+37.5 g ha^−1 a.i.) were added in all treatments, including the control.

[2] = test system: corn; experiment: Ethephon applied to corn at stage V6, Nova Mutum; chlorantraniliprole and cyproconazole+azoxystrobin added in all treatments; details: for Increased Yield: 100,000 plants/ha vs control at normal density
Description: Example 2—Effect of Growth Regulator Ethephon Applied to Corn at the Stage of Development V6
(§2) In the moment of the application, the insecticide chlorantraniliprole (25 g ha^−1 a.i.) and the fungicide cyproconazole+azoxystrobin (24+60 g ha^−1 a.i.) were added in all treatments, including the control.

[3] = test system: corn; experiment: Ethephon+cyclanilide applied to corn at stage V8, Nova Mutum; methomyl and pyraclostrobin+epoxyconazole added in all treatments; details: estimation at 100,000 plants per hectare vs control at normal density of sowing (Table 6)
Description: Example 3—Effect of Growth Regulator Ethephon+Cyclanilide Applied to Corn at the Stage of Development V8
as §1

[4] = test system: corn plants; experiment: Growth regulator applied in the late vegetative stage of corn (V6-V9), inventors' finding; details: application in the late vegetative stage (V6-V9)
Source text: The solution to such problems related to corn crops would be to limit plant growth through the use of plant growth regulators, commonly used in other crops (cotton, wheat), but without any tradition in corn crop in order to provide the cultivation of high densities of corn plants per hectare with a view to achieving considerable increase in the crop's yield potential, as well as to improving pest and disease control in the crop.

[5] = test system: corn; experiment: BF 428-5 applied to corn at stage V6, Nova Mutum; chlorantraniliprole and cyproconazole+azoxystrobin added in all treatments; details: V6; 30 DAA; all treatments (Table 11)
Description: Example 6—Effect of Growth Regulator BF 428-5 Applied to Corn at the Stage of Development V6
as §2

Q: `O=P(O)(O)CCCl` [Ethephon, 2-chloroethylphosphonic acid] was tested. Which “effects on the corn plant” value ([1]; V8) did it give?
A: reduction in shoot length, increased formation of adventitious roots, strengthening of the stem, strengthening of the root system, increased ventilation in the culture, proper development of male and female inflorescences

Q: What about the “effect on length and diameter of ears of corn” value ([1]; V8 (Table 1)) of the same compound?
A: reduces

Q: And the yield reduction ([1]; V8 (Table 1))?
A: not significant

Q: What about the shoot length ([1]; V8, 30 DAA, all treatments with application of ethephon (Table 1)) of the same compound?
A: less than or equal to 159.1 cm

Q: What about the “Ear Diameter” value ([1]; V8, 216 g ha^−1 a.i.) of the same compound?
A: 50.4 mm

Q: And the “Ear Length” value ([1]; V8, 216 g ha^−1 a.i.)?
A: 25.8 cm

Q: And the Yield ([1]; V8, 216 g ha^−1 a.i.)?
A: 4335.6 kg/ha

Q: What about the “Height (shoot length)” value ([1]; V8, 216 g ha^−1 a.i., 30 DAA) of the same compound?
A: 157.3 cm

Q: What about the “Population of corn plants 60,000 plants/ha, kg/corn plant” value ([1]; V8, 216 g ha^−1 a.i.) of the same compound?
A: 0.072 kg/corn plant

Q: What about the “Population of corn plants 100,000 plants/ha, kg/corn plant” value ([1]; V8, 216 g ha^−1 a.i.) of the same compound?
A: 0.072 kg/corn plant

Q: And the “Yield estimates 100,000 plants/ha” value ([1]; V8, 216 g ha^−1 a.i.)?
A: 7226.0 kg/ha

Q: And the “Increased Yield” value ([1]; V8, 216 g ha^−1 a.i.)?
A: 42.4%

Q: What about the “Ear Diameter” value ([1]; V8, 360 g ha^−1 a.i.) of the same compound?
A: 51.6 mm

Q: And the “Ear Length” value ([1]; V8, 360 g ha^−1 a.i.)?
A: 25.6 cm

Q: What about the Yield ([1]; V8, 360 g ha^−1 a.i.) of the same compound?
A: 4253.3 kg/ha

Q: And the “Height (shoot length)” value ([1]; V8, 360 g ha^−1 a.i., 30 DAA)?
A: 153.9 cm

Q: And the “Population of corn plants 60,000 plants/ha, kg/corn plant” value ([1]; V8, 360 g ha^−1 a.i.)?
A: 0.071 kg/corn plant

Q: What about the “Population of corn plants 100,000 plants/ha, kg/corn plant” value ([1]; V8, 360 g ha^−1 a.i.) of the same compound?
A: 0.071 kg/corn plant

Q: And the “Yield estimates 100,000 plants/ha” value ([1]; V8, 360 g ha^−1 a.i.)?
A: 7088.8 kg/ha

Q: What about the “Increased Yield” value ([1]; V8, 360 g ha^−1 a.i.) of the same compound?
A: 39.7%

Q: What about the “Ear Diameter” value ([1]; V8, 576 g ha^−1 a.i.) of the same compound?
A: 50.7 mm

Q: And the “Ear Length” value ([1]; V8, 576 g ha^−1 a.i.)?
A: 25.4 cm

Q: What about the Yield ([1]; V8, 576 g ha^−1 a.i.) of the same compound?
A: 4680.0 kg/ha

Q: What about the “Height (shoot length)” value ([1]; V8, 576 g ha^−1 a.i., 30 DAA) of the same compound?
A: 152.2 cm

Q: What about the “Population of corn plants 60,000 plants/ha, kg/corn plant” value ([1]; V8, 576 g ha^−1 a.i.) of the same compound?
A: 0.078 kg/corn plant

Q: What about the “Population of corn plants 100,000 plants/ha, kg/corn plant” value ([1]; V8, 576 g ha^−1 a.i.) of the same compound?
A: 0.078 kg/corn plant

Q: What about the “Yield estimates 100,000 plants/ha” value ([1]; V8, 576 g ha^−1 a.i.) of the same compound?
A: 7800.0 kg/ha

Q: And the “Increased Yield” value ([1]; V8, 576 g ha^−1 a.i.)?
A: 53.7%

Q: What about the yield increases ([1]; V8, estimation at 100,000 plants per hectare vs control at normal density of sowing (Table 2)) of the same compound?
A: more than 39%

Q: And the “effects on the corn plant” value ([2]; V6)?
A: reduction in shoot length, increased formation of adventitious roots, strengthening of the stem, strengthening of the root system, increased ventilation in the culture, proper development of male and female inflorescences

Q: What about the “effect on length and diameter of ears of corn” value ([2]; V6 (Table 3)) of the same compound?
A: reduces

Q: And the “yield reduction / increase” value ([2]; V6 (Table 3))?
A: yield reduction was significant for some treatments, and the yield increase was also significant for some treatments

Q: And the shoot length ([2]; V6, 30 DAA, all treatments with application of ethephon (Table 3))?
A: less than or equal to 152.5 cm

Q: And the “Ear Diameter” value ([2]; V6, 216 g ha^−1 a.i.)?
A: 37.9 mm

Q: What about the “Ear Length” value ([2]; V6, 216 g ha^−1 a.i.) of the same compound?
A: 21.4 cm

Q: What about the Yield ([2]; V6, 216 g ha^−1 a.i.) of the same compound?
A: 1906.7 kg/ha

Q: And the “Height (shoot length)” value ([2]; V6, 216 g ha^−1 a.i., 30 DAA)?
A: 144.3 cm

Q: What about the “Population of corn plants 60,000 plants/ha, kg/corn plant” value ([2]; V6, 216 g ha^−1 a.i.) of the same compound?
A: 0.032 kg/corn plant

Q: What about the “Population of corn plants 100,000 plants/ha, kg/corn plant” value ([2]; V6, 216 g ha^−1 a.i.) of the same compound?
A: 0.032 kg/corn plant

Q: And the “Yield estimates 100,000 plants/ha” value ([2]; V6, 216 g ha^−1 a.i.)?
A: 3177.8 kg/ha

Q: What about the “Increased Yield” value ([2]; V6, 216 g ha^−1 a.i.) of the same compound?
A: 10.1%

Q: What about the “Ear Diameter” value ([2]; V6, 360 g ha^−1 a.i.) of the same compound?
A: 36.7 mm

Q: And the “Ear Length” value ([2]; V6, 360 g ha^−1 a.i.)?
A: 21.1 cm

Q: And the Yield ([2]; V6, 360 g ha^−1 a.i.)?
A: 3553.3 kg/ha

Q: And the “Height (shoot length)” value ([2]; V6, 360 g ha^−1 a.i., 30 DAA)?
A: 148.5 cm

Q: And the “Population of corn plants 60,000 plants/ha, kg/corn plant” value ([2]; V6, 360 g ha^−1 a.i.)?
A: 0.059 kg/corn plant

Q: And the “Population of corn plants 100,000 plants/ha, kg/corn plant” value ([2]; V6, 360 g ha^−1 a.i.)?
A: 0.059 kg/corn plant

Q: What about the “Yield estimates 100,000 plants/ha” value ([2]; V6, 360 g ha^−1 a.i.) of the same compound?
A: 5922.2 kg/ha

Q: What about the “Increased Yield” value ([2]; V6, 360 g ha^−1 a.i.) of the same compound?
A: 105.2%

Q: What about the “Ear Diameter” value ([2]; V6, 576 g ha^−1 a.i.) of the same compound?
A: 37.7 mm

Q: What about the “Ear Length” value ([2]; V6, 576 g ha^−1 a.i.) of the same compound?
A: 23.3 cm

Q: What about the Yield ([2]; V6, 576 g ha^−1 a.i.) of the same compound?
A: 3540.0 kg/ha

Q: And the “Height (shoot length)” value ([2]; V6, 576 g ha^−1 a.i., 30 DAA)?
A: 144.9 cm

Q: What about the “Population of corn plants 60,000 plants/ha, kg/corn plant” value ([2]; V6, 576 g ha^−1 a.i.) of the same compound?
A: 0.059 kg/corn plant

Q: What about the “Population of corn plants 100,000 plants/ha, kg/corn plant” value ([2]; V6, 576 g ha^−1 a.i.) of the same compound?
A: 0.059 kg/corn plant

Q: What about the “Yield estimates 100,000 plants/ha” value ([2]; V6, 576 g ha^−1 a.i.) of the same compound?
A: 5900.0 kg/ha

Q: What about the “Increased Yield” value ([2]; V6, 576 g ha^−1 a.i.) of the same compound?
A: 104.4%

Q: What about the yield increases ([2]; V6, estimation at 100,000 plants per hectare vs control at normal density of sowing (Table 4)) of the same compound?
A: more than 10.1%

Q: And the yield increases [3]?
A: more than 44.4%

Q: What about the root system [4] of the same compound?
A: stronger root system

Q: What about the shoot length [5] of the same compound?
A: less than or equal to 206.0 cm
